These results are taken from US6831069B2, “Pyrrolo[2,3-d]pyrimidine nucleoside analogs” (priority 1999, dated 2004).

Structures are written as SMILES.

The test system of data set [1] is activated human T cells. The data set can be described thus: T cell proliferation, [3H]-thymidine incorporation. The format is cell-based. Conditions: 48 h, read-out: peak inhibition of T cell proliferation.
The subject of data set [2] is BALB/c and C57BL/6 lymph node CD4+ T cells. The data set can be described thus: Generation of murine Th1 cells, IL-4 and IFNγ ELISA after restimulation. Format: cell-based, mouse. On the set-up: murine IFNγ secretion upon restimulation: dose or concentration left out as unconfirmed. The note with it: Th1 conditions (anti-CD3, IL-2, IFNγ, IL-12), both mouse strains. A general note: An ELISA detects its analyte on a solid surface through an enzyme-linked reagent.

Data set [3] deals with CD3+ T cells. Kind of data set: Viability by propidium iodide exclusion. The format is cell-based, human. As to the method: For determination of cytokine protein levels, T-cells (1×10^6 cells in a volume of 1 ml) were activated by the addition of 10 ng PMA plus 0.5 μg ionomycin (both from Calbiochem, La Jolla, Calif.) and incubated in 24 well plates in the presence of 0 to 20 μM nucleoside for up to 48 h at 37° C. and 5% CO2 in a humidified incubator. Following activation, supernatants were analysed for cell-derived cytokine production. For proliferation and viability studies, the protocol as above was modified to a 96 well-plate format using 0.2×10^6 cells in a volume of 0.2 ml and activation with 2 ng PMA and 0.1 μg ionomycin. In separate experiments, 5×10^6 T cells in 2 ml were activated with 20 ng PMA plus 1 μg ionomycin. Here total RNA was isolated from T cells following 6-24 h incubation and analyzed by RT-PCR to determine mRNA levels of various cytokines and inflammatory mediators. […]
T cell proliferative responses were assessed by measuring [3H]-thymidine (1 μCi, ICN, Irvine, Calif.) incorporation for the last 16 h of each assay. Cells were harvested onto filters and DNA synthesis was measured following scintillation counting on a Wallac Betaplate counter (Perkin-Elmer/Wallac, Gaithersburg, Md.). Viability was assessed by propidium iodide (5 μg/ml) exclusion in untreated and nucleoside-treated human T cells stained with FITC-CD3 (Becton Dickinson, San Jose, Calif.). […]

Data set [4] relates to activated human T cells. The data set can be described thus: MTT cell proliferation assay. Conditions: data not shown. Format: cell-based. (In general: Tetrazolium assays rely on reduction of a dye to a coloured formazan, in cell work by metabolically active cells.)

In the case of `N=C(N)c1cn([C@@H]2O[C@H](CO)[C@@H](O)[C@H]2O)c2nc[nH]c(=O)c12` [ICN 10776, 7-β-D-ribofuranosyl-4-oxopyrrolo-[2,3-d]pyrimidine-5-carboxamidine], in data set [1], the inhibition at 20 µM is 99%. The “murine IL-4 secretion upon restimulation” value in data set [2] (co-incubation with 10 mM ICN 10776) is listed as “elevated levels of IL-4”. Also, the “murine IFNγ secretion upon restimulation” value in data set [2] (co-incubation with ICN 10776) is on record as “low levels of IFNγ”. In addition, in data set [3] (20 μM, 48 h incubation, decrease from 95%), the “viability of resting CD3+ T cells” value is recorded as 85%. The “viability of PMA-ION activated CD3+ T cells versus no nucleoside” value in data set [3] (0.2 to 20 μM, 8 h, 24 h, 48 h) is reported as “no sign difference”. Besides, in data set [4], the “T cell proliferation (MTT)” value was “dramatically inhibited T cell proliferation”.
